Values of other authors in patent US20030216407A1, “Use of PDE5 inhibitors in the treatment of scarring” (Pfizer Inc., priority 2002, published 2003).

Tests used:
[1] = tested on: adult cardiac fibroblasts; details: substance on its own
[2] = tested on: normal rat kidney fibroblast collagen synthesis; details: in vitro
PDE6 against PDE5 = details: more potent against PDE6 than against PDE5

| Compound | regulating cardiac fibroblast proliferation [1] | collagen synthesis induced by CTGF [2] | potency against PDE6 relative to PDE5 (PDE6 against PDE5) |
| --- | --- | --- | --- |
| atrial natriurectic peptide [ANP] | did not on its own regulate |  |  |
| Nc1nc2c(ncn2[C@@H]2O[C@@H]3COP(=O)(O)O[C@H]3[C@H]2O)c(=O)[nH]1 [cGMP] |  | no effect |  |
| CCCOc1ccccc1-c1nc2nn[nH]c2c(=O)[nH]1 [zaprinast] | no effect |  | five fold |
